This assay addresses T1, Amiloride-sensitive sodium channels (ENaC) (Sus scrofa, UniProt A0A480QJ99+F1RPF1+I3LGX7).
T1 construct: placed inside the trachea in contact with the tracheal epithelium; from tissue; host or cells: ex vivo pig trachea (tracheal epithelium)
T1 sequence (A0A480QJ99 1-650): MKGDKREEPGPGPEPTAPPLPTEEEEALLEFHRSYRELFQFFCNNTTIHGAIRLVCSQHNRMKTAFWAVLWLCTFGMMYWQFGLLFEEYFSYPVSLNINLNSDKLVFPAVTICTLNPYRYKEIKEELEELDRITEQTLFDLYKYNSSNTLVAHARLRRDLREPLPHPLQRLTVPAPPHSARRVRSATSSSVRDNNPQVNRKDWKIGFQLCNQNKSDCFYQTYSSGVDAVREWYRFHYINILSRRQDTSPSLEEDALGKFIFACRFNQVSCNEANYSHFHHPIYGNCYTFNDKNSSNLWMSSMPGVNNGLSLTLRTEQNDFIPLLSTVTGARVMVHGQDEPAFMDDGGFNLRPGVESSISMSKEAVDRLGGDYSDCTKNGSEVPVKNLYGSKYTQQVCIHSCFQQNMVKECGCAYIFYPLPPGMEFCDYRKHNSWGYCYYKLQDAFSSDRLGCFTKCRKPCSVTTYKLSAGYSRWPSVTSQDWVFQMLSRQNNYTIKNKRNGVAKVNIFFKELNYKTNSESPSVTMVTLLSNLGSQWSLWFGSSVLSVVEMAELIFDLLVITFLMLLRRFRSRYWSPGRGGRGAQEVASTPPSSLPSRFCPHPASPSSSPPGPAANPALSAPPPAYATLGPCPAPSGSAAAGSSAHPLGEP
T1 sequence (I3LGX7 1-644): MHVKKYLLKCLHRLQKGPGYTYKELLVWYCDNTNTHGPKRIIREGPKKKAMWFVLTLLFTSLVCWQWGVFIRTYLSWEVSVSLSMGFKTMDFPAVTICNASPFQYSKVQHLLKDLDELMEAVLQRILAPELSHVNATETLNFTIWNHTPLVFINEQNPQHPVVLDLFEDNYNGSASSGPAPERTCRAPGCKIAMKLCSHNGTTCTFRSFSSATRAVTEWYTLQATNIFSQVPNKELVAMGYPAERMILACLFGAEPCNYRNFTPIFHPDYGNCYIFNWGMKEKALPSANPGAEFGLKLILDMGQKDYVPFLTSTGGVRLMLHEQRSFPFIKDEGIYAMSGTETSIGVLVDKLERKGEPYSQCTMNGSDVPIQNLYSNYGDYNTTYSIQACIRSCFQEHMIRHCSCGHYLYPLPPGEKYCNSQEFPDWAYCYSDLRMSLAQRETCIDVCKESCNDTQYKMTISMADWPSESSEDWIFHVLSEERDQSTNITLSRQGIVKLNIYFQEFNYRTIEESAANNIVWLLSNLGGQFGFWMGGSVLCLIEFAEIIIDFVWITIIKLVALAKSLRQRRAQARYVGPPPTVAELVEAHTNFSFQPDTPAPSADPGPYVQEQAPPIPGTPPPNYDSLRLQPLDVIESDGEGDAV
T1 sequence (F1RPF1 1-652): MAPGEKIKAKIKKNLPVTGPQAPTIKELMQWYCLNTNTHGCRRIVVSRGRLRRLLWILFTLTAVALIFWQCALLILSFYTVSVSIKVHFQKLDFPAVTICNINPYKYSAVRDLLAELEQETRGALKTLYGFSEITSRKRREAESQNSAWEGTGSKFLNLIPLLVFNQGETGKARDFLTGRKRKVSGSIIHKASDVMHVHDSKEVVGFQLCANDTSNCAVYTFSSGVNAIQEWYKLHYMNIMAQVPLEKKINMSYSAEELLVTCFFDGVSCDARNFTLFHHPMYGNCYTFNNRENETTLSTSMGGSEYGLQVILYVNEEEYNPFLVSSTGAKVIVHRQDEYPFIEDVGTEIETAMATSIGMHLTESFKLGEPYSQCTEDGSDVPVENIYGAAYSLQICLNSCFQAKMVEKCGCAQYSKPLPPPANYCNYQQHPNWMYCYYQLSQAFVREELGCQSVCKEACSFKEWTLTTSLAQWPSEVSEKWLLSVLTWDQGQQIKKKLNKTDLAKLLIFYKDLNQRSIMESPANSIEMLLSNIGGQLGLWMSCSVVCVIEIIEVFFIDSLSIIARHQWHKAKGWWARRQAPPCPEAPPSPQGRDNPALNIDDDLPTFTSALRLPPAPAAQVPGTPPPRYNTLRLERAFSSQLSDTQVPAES
In words: Amiloride-sensitive ENaC-dependent tracheal PD, ex vivo pig trachea. The conditions noted are these: for baseline tracheal PD during perfusion of the agent / responses to 5 min amiloride perfusion during perfusion of the agent: perfused in BSS: Rx 3.10^−5M alone, 50 mM sodium gluconate, 0.1 mM-UTP; for baseline tracheal PD during perfusion of the agent / responses to 5 min amiloride perfusion during perfusion of the agent / AUC of amiloride-sensitive ENaC-dependent tracheal PD responses, analysis of variance: +50 mM-NaCl, combinations with 10^−5 M Rx; for responses to 5 min amiloride perfusion during perfusion of the agent / AUC of amiloride-sensitive ENaC-dependent tracheal PD responses, analysis of variance: 100 mosM-mannitol; for AUC of amiloride-sensitive ENaC-dependent tracheal PD responses, analysis of variance: AUC normalised to average of first four peaks, Rx 3.10^−5M alone. As to the method: (§1) FIG. 1 A description of the equipment used to measure electrical potential difference (PD) across the pig trachea ex vivo (FIG. 1A). Pig tracheas placed on a sloping radiator heated at 37° C. A reference electrode consisting of silicone tubing filled with Signa electrode cream was attached to the outer surface of the trachea. A double lumen recording electrode (FIG. 1B) was placed inside the trachea in contact with the tracheal epithelium. The inner tubing of the recording electrode was used to perfuse onto the surface of the trachea buffer solutions and buffer solutions containing drugs and agents. The outer part of the recording electrode was also filled with Signa electrode cream. The ends of the electrodes not in contact with the trachea were placed in Ringer buffer solution. Electrical contact to calomel half-cells in 3M-KCl solution was achieved by silicone tubing bridges filled with Signa electrode cream. The calomel half-cells were connected to a high impedance digital electrometer (Agilent U1252A). Digital PD values were recorded continuously every 1 second for the duration each study and were filed onto a PC.
as §1, with “Pig” for “FIG. 1 A description of the equipment used to measure electrical potential difference (PD) across the pig trachea ex vivo (FIG. 1A). Pig”, “were obtained from” for “placed on”, “local abattoir or Veterinary University. The lumen of each trachea was cleaned by gentle irrigation with BSS.” for “sloping radiator heated at 37° C.”, “trachea according to the diagram in FIG. 1A. Pig tracheas were placed on a sloping radiator heated at 37° C.” for “trachea.”, “duration of” for “duration”
During each study the amiloride-sensitive, ENaC-dependent component of tracheal PD was determined periodically by perfusion (at 1 ml/min) of buffer solution containing 3×10^−6 M amiloride onto the epithelial surface of the trachea for 5 min, followed by washout for 10 minutes with buffer solution without amiloride. Each response to amiloride was quantified by measuring the area under the curve (AUC) response (mV.min) to amiloride perfusion and washout.

The text below walks through data of patent US20170020838A1, “TREATMENT FOR RESPIRATORY DISEASE” (MUCOKINETICA LIMITED, priority 2014, published 2017).

Take `O=C([O-])[C@H](O)[C@@H](O)[C@H](O)[C@H](O)CO.[Na+]` [hyperosmotic sodium gluconate, sodium gluconate]: the “baseline tracheal PD during perfusion of the agent” value is reported as “partially depolarise” and the “responses to 5 min amiloride perfusion during perfusion of the agent” value (“responses … of the agent” below) is on record as “decrease”.
Turning to `OC[C@@H](O)[C@@H](O)[C@H](O)[C@H](O)CO` [hyperosmotic mannitol, mannitol], the “AUC of amiloride-sensitive ENaC-dependent tracheal PD responses, analysis of variance” value is reported as “significantly reduced” and the “responses … of the agent” value is “decrease”. Also, the “responses to 5 min amiloride perfusion on final perfusion with BSS without the agent” value (washout 60 min with BSS) was “recover”.
On to `O=c1ccn([C@@H]2O[C@H](COP(=O)(O)OP(=O)(O)OP(=O)(O)O)[C@@H](O)[C@H]2O)c(=O)[nH]1` [UTP, uridine 5′-triphosphate], for which the “baseline tracheal PD during perfusion of the agent” value was “partially depolarise” and the “responses … of the agent” value is “decrease”.
Take `N=C(N)NC(=O)c1nc(Cl)c(N)nc1N` [amiloride]: the “time for tracheal PD to reach plateau depolarisation following initiation of amiloride perfusion” value (3×10^−6 M amiloride perfused 5 min in BSS at 1 ml/min, mean of 23 tracheas) is on record as “about 2 min”. For the same molecule, where the note is “after 5 min perfusion of amiloride, washout with BSS”, the “time for tracheal PD to return to baseline after initiation of washout” value is “approximately 5 min”.
For `N=C(N)Nc1ccc(C(=O)Oc2ccc3cc(C(=N)N)ccc3c2)cc1` [6-amidino-2-napthyl 4-guanidinobenzoate], the “AUC of amiloride-sensitive ENaC-dependent tracheal PD responses, analysis of variance” value is recorded as “significant reduction (p<0.0001)”; the “baseline tracheal PD during perfusion of the agent” value was “depolarise”; the “responses … of the agent” value was “decrease”. Further, the “down-regulation of amiloride-sensitive ENaC-dependent tracheal PD responses, dose series” value (doses 3.10^−8 M, 10^−7 M, 3.10^−7 M, 10^−6 M, 3.10^−6 M, and 10^−5 M, all doses) is reported as “Significant down-regulation”.
